Read-outs that look alike come from different tables or passages of the source.
Columns and labels:
[1] = target: Recombinant ZIKV NS5 protein (ZIKV RdRp) (Zika virus, UniProt A0A024B7W1); assay: Primer extension polymerase activity assay; format: biochemical; conditions: RNA P/T, then ATP, GTP, CTP, UTP 100 μM each, 30°C 2 h; 3′-dATP 100 μM, HMTU-TP 0.025-1.6 mM
Procedure: To generate RNA primer-template complexes (RNA P/T), 0.5 μM fluorescently labeled RNA primer and 2 μM unlabeled RNA template were mixed in 50 mM NaCl, incubated at 95°C for 10 min, and then slowly cooled down to room temperature. The annealed RNA P/T was stored at -30°C before use in the primer extension assay.
The primer extension assay was performed according to a previous report ([Lu et al., 2017]). For analysis of the competitive inhibition ability of HMTU-TP, 200 nM of recombinant ZIKV NS5 (Sino Biological) and 50 nM RNA P/T were incubated 30°C for 15 min in reaction buffer [10 mM Tris-HCl (pH 7.5), 10 mM DTT, 5 mM MgCl2, 5% glycerol, 0.05% Triton-X 100, and 0.02 U/μL RNasein (Promega)], and then ATP analogs [500 μM ATP (Thermo Fischer Scientific), 100 μM 3’-dATP (TriLink), or serially diluted HMTU-TP (0.025, 0.1, 0.4 or 1.6 mM)] were added and incubated at 30°C for 10 min. Primer extension reactions were initiated by the addition of ATP, GTP, CTP and UTP (100 μM each). The reactions were performed 30°C for 2 h and stopped by the addition of quenching buffer (7M Urea, 1X TBE buffer, and 50 mM EDTA). The quenched samples were denatured at 95°C for 5 min, and the primer extension products were separated on a 15% denaturing polyacrylamide gel (Invitrogen). […] The band intensities were analyzed by ImageQuant TL version 8.2.0 (Cytiva).

[2] = test system: DENV1; assay: CPE-based antiviral assay (resazurin), DENV1 in BHK-21; format: cell-based, Dengue virus 1; conditions: Dengue virus, DENV1, BHK-21, 120 h, read-out: EC50 against DENV1
[3] = test system: DENV2; assay: CPE-based antiviral assay (resazurin), DENV2 in BHK-21; format: cell-based, Dengue virus 2; conditions: Dengue virus, DENV2, BHK-21, 96 h, read-out: EC50 against DENV2
[4] = test system: DENV3; assay: CPE-based antiviral assay (resazurin), DENV3 in BHK-21; format: cell-based, Dengue virus 3; conditions: Dengue virus, DENV3, BHK-21, 120 h, read-out: EC50 against DENV3
[5] = test system: DENV4; assay: CPE-based antiviral assay (resazurin), DENV4 in BHK-21; format: cell-based, Dengue virus 4; conditions: Dengue virus, DENV4, BHK-21, 120 h, read-out: EC50 against DENV4
[6] = test system: ZIKV; assay: CPE-based antiviral assay (MTT), ZIKV in BHK-21; format: cell-based; conditions: Zika virus, BHK-21, 72 h, read-out: EC50 against ZIKV
[7] = test system: YFV; assay: microbe, parasite or virus in culture; format: cell-based; conditions: Yellow fever virus, BHK-21, 72 h, read-out: EC50 against YFV
[8] = test system: JEV; assay: CPE-based antiviral assay (MTT), JEV in BHK-21; format: cell-based; conditions: Japanese encephalitis virus, BHK-21, 72 h, read-out: EC50 against JEV
[9] = test system: WNV; assay: CPE-based antiviral assay (MTT), WNV in BHK-21; format: cell-based; conditions: West Nile virus, BHK-21, 72 h, read-out: EC50 against WNV
[10] = test system: DENV2; assay: MTT assay, DENV2-infected BHK-21 cells; format: cell-based, Dengue virus 2; conditions: Dengue virus
[11] = Cytotoxicity assay in BHK-21 cells; format: cell-based, Hamster; conditions: hamster
[12] = test system: BHK-21 cells; assay: Cytotoxicity assay in BHK-21 cells; format: cell-based, Hamster; conditions: concentrations up to 20 μM
[13] = Cytotoxicity against MRC5 cells; format: cell-based, Human; conditions: human
Procedure: (§1) The MTT (3-[4,5-dimethyl-2-thiazolyl]-2,5-diphenyl-2H-tetrazolium bromide) and resazurin reduction assays were carried out as previously described ([Nobori et al., 2018]; [Sanaki et al., 2019]). These were performed to calculate cell viability following viral induced CPE or cytotoxicity. Assay conditions for flaviviruses are as described in Table 2.

[14] = test system: MRC5 cells; assay: Cytotoxicity against MRC5 cells; format: cell-based, Human; conditions: for CC50: rescreening (Table 3), read-out: CC50
Procedure: as §1

[15] = test system: SARS-CoV-2; assay: qRT-PCR analysis of SARS-CoV-2 in Caco-2 cells (rescreening, supernatant viral RNA); format: cell-based; conditions: qRT-PCR analysis using Caco-2 cells, MOI 0.1, 48 h
[16] = test system: HCoV-OC43; assay: Resazurin reduction assay, HCoV-OC43-infected MRC5 cells
[17] = test system: HCoV-229E; assay: Resazurin reduction assay, HCoV-229E-infected MRC5 cells
[18] = test system: rats; set-up: method as in Lim et al., 2015; Yin et al., 2009; conditions: dosed orally, preclinical, ref Lim et al., 2015, Yin et al., 2009; cited from earlier work
[19] = test system: dogs; set-up: method as in Lim et al., 2015; Yin et al., 2009; conditions: dosed orally, preclinical, ref Lim et al., 2015, Yin et al., 2009; cited from earlier work
[20] = rescreening (Table 3), read-out: CC50
[21] = Severe acute respiratory syndrome coronavirus 2
[22] = Betacoronavirus 1, OC43, MRC5, read-out: HCoV-OC43 EC50
[23] = MRC5 cells, resazurin reduction assay
[24] = Human coronavirus 229E, MRC5, read-out: HCoV-229E EC50
[25] = read-out: HCoV-OC43 EC50, MRC5 cells, resazurin reduction assay, rescreening of nine tubercidin derivatives
[26] = read-out: HCoV-229E EC50, MRC5 cells, resazurin reduction assay, rescreening of nine tubercidin derivatives

Chain of Recombinant ZIKV NS5 protein (ZIKV RdRp) (A0A024B7W1 2521-3423): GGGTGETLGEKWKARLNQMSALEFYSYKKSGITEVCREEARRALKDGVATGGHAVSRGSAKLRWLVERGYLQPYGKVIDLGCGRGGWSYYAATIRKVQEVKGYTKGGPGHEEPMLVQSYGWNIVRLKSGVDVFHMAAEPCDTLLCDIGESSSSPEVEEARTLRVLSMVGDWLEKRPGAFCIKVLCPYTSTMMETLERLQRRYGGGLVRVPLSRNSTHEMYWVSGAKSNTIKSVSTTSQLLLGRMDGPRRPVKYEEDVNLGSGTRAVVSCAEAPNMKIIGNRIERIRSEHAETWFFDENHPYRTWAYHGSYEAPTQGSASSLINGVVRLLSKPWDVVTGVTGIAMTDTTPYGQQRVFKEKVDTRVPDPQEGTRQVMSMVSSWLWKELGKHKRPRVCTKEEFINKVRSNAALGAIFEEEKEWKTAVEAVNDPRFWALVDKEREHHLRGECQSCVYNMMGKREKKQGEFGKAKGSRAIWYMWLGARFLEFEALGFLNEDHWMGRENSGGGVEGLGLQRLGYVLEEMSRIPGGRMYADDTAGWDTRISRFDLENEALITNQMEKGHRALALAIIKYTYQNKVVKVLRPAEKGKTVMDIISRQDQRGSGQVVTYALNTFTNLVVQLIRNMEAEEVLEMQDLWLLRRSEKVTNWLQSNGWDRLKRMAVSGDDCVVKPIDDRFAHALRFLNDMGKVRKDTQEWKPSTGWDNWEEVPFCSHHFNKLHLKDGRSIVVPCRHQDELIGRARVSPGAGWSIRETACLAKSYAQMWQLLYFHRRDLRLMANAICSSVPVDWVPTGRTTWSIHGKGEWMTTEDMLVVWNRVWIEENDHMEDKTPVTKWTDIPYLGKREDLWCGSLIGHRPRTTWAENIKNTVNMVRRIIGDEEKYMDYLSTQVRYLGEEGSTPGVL

**Q.** For `Nc1ncnc2c1ncn2[C@@H]1O[C@H](COP(=O)(O)OP(=O)(O)OP(=O)(O)O)C[C@H]1O` [3′-dATP, 3'-Deoxyadenosine-5'-Triphosphate, reference compound], which “effect on RNA extension by ZIKV RdRp” value [1] is on record?
**A.** prevented RNA extension

**Q.** With `NC(=O)c1nc(F)c[nH]c1=O` [Favipiravir] as the compound, how does the EC50 [2] read?
**A.** 17 µM

**Q.** What about the EC50 [3] of the same compound?
**A.** 4.4 µM

**Q.** What about the EC50 [4] of the same compound?
**A.** 13 µM

**Q.** What about the EC50 [5] of the same compound?
**A.** 5.2 µM

**Q.** And the EC50 [6]?
**A.** 40 µM

**Q.** And the EC50 [7]?
**A.** 57 µM

**Q.** What about the EC50 [8] of the same compound?
**A.** 80 µM

**Q.** What about the EC50 [9] of the same compound?
**A.** > 100 µM

**Q.** For `Nc1ncnc2c1c(CO)cn2C1OC(COP(=O)(O)OP(=O)(O)OP(=O)(O)O)C(O)C1O` (centres unmarked) [HMTU-TP, HMTU 5′-triphosphate], which “effect on RNA extension by ZIKV RdRp” value [1] is on record?
**A.** incorporated into RNA template, resulting in chain termination

**Q.** For `Nc1ncnc2c1c(/C=N\O)cn2[C@@H]1O[C@H](CO)[C@@H](O)[C@H]1O` [HUP1069, 5-formyltuberucidin oxime], which EC50 [10] is on record?
**A.** < 125 nM

**Q.** And the CC50 [11]?
**A.** 180 nM

**Q.** What about the “cytotoxicity (in words)” value [12] of the same compound?
**A.** high cytotoxicity

**Q.** What about the CC50 [13, 20] of the same compound?
**A.** 740 nM

**Q.** And the “cytotoxicity (in words)” value [14]?
**A.** high cytotoxicity

**Q.** What about the EC90 [15, 21] of the same compound?
**A.** 200 nM

**Q.** And the EC50 [16, 22]?
**A.** 55 nM

**Q.** And the “anti-HCoV-OC43 activity (in words)” value [16, 23]?
**A.** strong antiviral activities

**Q.** What about the EC50 [17, 24] of the same compound?
**A.** < 78 nM

**Q.** What about the “anti-HCoV-229E activity (in words)” value [17, 23] of the same compound?
**A.** strong antiviral activities

**Q.** With `Nc1c2ccn([C@@H]3O[C@H](CO)[C@@H](O)[C@H]3O)c2nc[n+]1[O-]` [HUP1077, 3-tubercidin N-oxide] as the compound, how does the EC50 [10] read?
**A.** 950 nM

**Q.** And the CC50 [11]?
**A.** > 20000 nM

**Q.** And the “cytotoxicity (in words)” value [12]?
**A.** did not exhibit cytotoxicity

**Q.** And the CC50 [13, 20]?
**A.** 24000 nM

**Q.** And the EC90 [15, 21]?
**A.** 3500 nM

**Q.** And the EC50 [16, 22]?
**A.** 4300 nM

**Q.** And the “anti-HCoV-OC43 activity (in words)” value [16, 23]?
**A.** strong antiviral activities

**Q.** What about the EC50 [17, 24] of the same compound?
**A.** 4000 nM

**Q.** And the “anti-HCoV-229E activity (in words)” value [17, 23]?
**A.** strong antiviral activities

**Q.** What does the source list for `Nc1ncnc2c1c([N+](=O)[O-])cn2[C@@H]1O[C@H](CO)[C@@H](O)[C@H]1O` [HUP1078]?
**A.** CC50 [14]: 330 nM; EC90 [15]: 100 nM; EC50 [16, 25]: > 10000 nM; EC50 [17, 26]: 2000 nM

**Q.** For `N#Cc1cn([C@@H]2O[C@H](CO)[C@@H](O)[C@H]2O)c2ncnc(N)c12` [HUP1109], which CC50 [14] is on record?
**A.** 590 nM

**Q.** What about the EC90 [15] of the same compound?
**A.** 200 nM

**Q.** What about the EC50 [16, 25] of the same compound?
**A.** > 10000 nM

**Q.** What about the EC50 [17, 26] of the same compound?
**A.** 2300 nM

**Q.** For `Nc1ncnc2c1ccn2[C@@H]1O[C@H](CO)[C@@H](O)[C@H]1O` [HUP1136, tubercidin], which EC50 [10] is on record?
**A.** < 125 nM

**Q.** And the CC50 [11]?
**A.** 340 nM

**Q.** And the “cytotoxicity (in words)” value [12]?
**A.** high cytotoxicity

**Q.** And the CC50 [13, 20]?
**A.** 660 nM

**Q.** And the “cytotoxicity (in words)” value [14]?
**A.** high cytotoxicity

**Q.** And the EC90 [15, 21]?
**A.** 87 nM

**Q.** What about the EC50 [16, 22] of the same compound?
**A.** 110 nM

**Q.** And the “anti-HCoV-OC43 activity (in words)” value [16, 23]?
**A.** strong antiviral activities

**Q.** And the EC50 [17, 24]?
**A.** < 78 nM

**Q.** And the “anti-HCoV-229E activity (in words)” value [17, 23]?
**A.** strong antiviral activities

**Q.** What does the source list for `C#C[C@@]1(O)[C@H](O)[C@@H](CO)O[C@H]1n1ccc2c(N)ncnc21` [NITD-008, 2′-C-ethynyltubercidin]?
**A.** toxicity [18]: significant toxicity; toxicity [19]: significant toxicity

**Q.** Which CC50 ([13]; mean from three independent experiments (Table 4), read-out: CC50 MRC5, mean) does the source give for `CCC(CC)COC(=O)[C@H](C)N[P@](=O)(OC[C@H]1O[C@@](C#N)(c2ccc3c(N)ncnn23)[C@H](O)[C@@H]1O)Oc1ccccc1` [Remdesivir, reference compound] here?
**A.** > 50000 nM

**Q.** What about the EC50 ([16]; Betacoronavirus 1, OC43, MRC5, read-out: HCoV-OC43 EC50, mean) of the same compound?
**A.** 229 nM

**Q.** And the EC50 ([17]; Human coronavirus 229E, MRC5, read-out: HCoV-229E EC50, mean)?
**A.** 71 nM

**Q.** With `NC(=O)c1ncn([C@@H]2O[C@H](CO)[C@@H](O)[C@H]2O)n1` [Ribavirin] as the compound, how does the EC50 [10] read?
**A.** 28000 nM

**Q.** What about the CC50 [11] of the same compound?
**A.** > 400000 nM

**Q.** What about the EC50 [2] of the same compound?
**A.** 62 µM

**Q.** And the EC50 [3]?
**A.** 19 µM

**Q.** And the EC50 [4]?
**A.** 54 µM

**Q.** What about the EC50 [5] of the same compound?
**A.** 86 µM

**Q.** What about the EC50 [6] of the same compound?
**A.** 31 µM

**Q.** And the EC50 [7]?
**A.** 34 µM

**Q.** What about the EC50 [8] of the same compound?
**A.** 33 µM

**Q.** And the EC50 [9]?
**A.** 52 µM

Reference: publication PMC8433052 (iScience, 2021)
